Data set [1] concerns mouse ES cells. Put plainly: Teratoma formation from pretreated ES cells in NOD/SCID mice. Type of data set: in vivo. To be noted: ES cells pretreated 2 days with 10 μM BRQ, subcutaneous in NOD/SCID mice, 4 weeks. How it is done:
The viable cells (1×10^6) were suspended in 50 μl of Matrigel (manufactured by BD Biosciences) and injected subcutaneously into the buttocks of 5-8-week-old NOD/SCID mice anesthetized with 10% pentobarbital. Four weeks after the injection, the mice were sacrificed to death, and the tumors were removed and photographed for their size measurement according to the method described in Tsukamoto Y, et al., Stem Cells. 2016; 34(8): 2016-2025. Based on the measurement values obtained, the volume of the tumors was calculated by the following formula.
Volume of tumor (cm^3)=major diameterxminor diameterxminor diameter×½.
Then, 4 weeks after transplantation, the tumors were removed and observed.

In data set [2] the test system is mouse ES cells. The data set can be described thus: Cell proliferation and cell death (BrdU uptake, Ki67, Casp3 immunostaining), ES cells. Type of data set: cell-based. To be noted: BRQ 2 days. How it is done:
(§1) The cells were fixed and immunostained as described in Kondo et al., Genes Dev. 2004, Vol. 18, Issue 23, pp. 2963-72. […] For the culture of mNSCs, PDL+fibronectin-coated ones were used (see Johe KK et al., Genes Dev. 1996, Vol. 10, Issue 24, pp. 3129 to 3140). For the culture of ES cells and iPS cells, gelatin-coated ones were used.
(§2) For immunostaining, the cells were first washed once with PBS, then fixed by adding 4% paraformaldehyde and incubating for 10 minutes at room temperature. The cells were replaced with PBS containing 0.3% Triton X100 and incubated for 5 minutes at room temperature, then replaced with PBS containing 0.3% Triton X100 and 10% FCS (blocking solution) and incubated for 30 minutes at room temperature. The solution was replaced with primary antibody solution diluted in blocking solution and incubated for 2 hours at room temperature. After washing three times with PBS, secondary antibody and DAPI solution diluted with blocking solution were added and incubated at room temperature for 2 hours. After washing three times with PBS, the cells were sealed with anti-fading agent (manufactured by DAKO, code number: 53023) and observed under a microscope. […] In addition, fluorescence images were acquired with an Axiolmager M1 microscope (manufactured by Carl Zeiss). […]

Data set [3] deals with mouse iPS cells. The data set can be described thus: Quantitative RT-PCR of Sox2, Oct4, Nanog, iPS cells. It counts as cell-based. The conditions noted are these: 10 μM BRQ, 2 days. How it is done: First, total RNA was prepared from cells using the RNeasy kit (manufactured by Qiagen), and cDNA was synthesized using the Transcriptor First Strand cDNA Synthesis Kit (manufactured by Roche Applied Science).
Then, the cDNA was used as a template, and Thunderbird Cyber qPCR Mix (manufactured by TOYOBO) and Step One Plus (manufactured by Thermo Fisher Scientific) were used to perform real-time PCR. The reaction conditions were set at 95° C. for 15 seconds and 60° C. for 30 seconds for 40 cycles, and the oligonucleotide primers shown below were used to amplify each target gene.
Note that the expression level of each target gene detected in this way was normalized by the relative quantification method (delta delta Ct method) based on the expression level of 18S ribosomal RNA.

Data set [4] deals with teratomas formed from mouse iPS cells. Put plainly: Anti-teratoma activity in NOD/SCID mice, iPS cell-derived tumors. It counts as in vivo. How it is done: (§3) For tumors, 10-μm-thick sections were prepared and immunostained using the methods described by Kondo T. and Raff M., EMBO J. 2000; 19(9): 1998-2007, and Takanaga H, et al., Stem Cells. 2009; 27(1): 165-174. The following antibodies were used for this immunostaining.
(§4) TOCRIS) PBS solution was administered daily intraperitoneally to mice bearing subcutaneous tumors. Five days after intraperitoneal administration, the mice were sacrificed to death, and the tumors were removed and photographed for pathological analysis according to the method described in Tsukamoto Y, et al., Stem Cells. 2016; 34(8): 2016-2025.
(§5) Next, sections of these tumors were prepared, immunolabeled for the proliferation marker Ki67, pluripotent stem cell markers (Oct4 and Nanog), and differentiation markers (ATF, βIII tubulin, and SMA), and observed.

For data set [5], the system named is mouse neural stem cells and mouse iPS cells. Put plainly: Mixed culture of neural stem cells and iPS cells, Nestin/Nanog immunostaining. Type of data set: cell-based. The conditions noted are these: 10 μM BRQ, 3 days. Here is the method:
as §1
For immunostaining, the cells were first washed once with PBS, then fixed by adding 4% paraformaldehyde and incubating for 10 minutes at room temperature. The cells were replaced with PBS containing 0.3% Triton X100 and incubated for 5 minutes at room temperature, then replaced with PBS containing 0.3% Triton X100 and 10% FCS (blocking solution) and incubated for 30 minutes at room temperature. The solution was replaced with primary antibody solution diluted in blocking solution and incubated for 2 hours at room temperature. After washing three times with PBS, secondary antibody and DAPI solution diluted with blocking solution were added and incubated at room temperature for 2 hours. After washing three times with PBS, the cells were sealed with anti-fading agent (manufactured by DAKO, code number: 53023) and observed under a microscope. […] In addition, fluorescence images were acquired with an Axiolmager M1 microscope (manufactured by Carl Zeiss).
The cells were then analyzed by immunostaining as described above.

Data set [6] has as its system mouse ES cells. Put plainly: MTT assay, viability of mouse ES cells. It counts as cell-based. The conditions noted are these: 3 days. How it is done:
(§6) One thousand cells were seeded into each well of a 96-well plate and cultured for 3 days in medium (200 μL/well) supplemented with only DMSO at a final concentration of 0.1% or in medium (200 μL/well) supplemented with each dihydroorotate dehydrogenase (DHODH) inhibitor. The medium used was the appropriate culture solution for each cell as described above.
(§7) The concentration of each DHODH inhibitor added to the medium was a 2-fold dilution series starting from 200 μM.
(§8) As a background, a well containing medium only was prepared, and as a control, a well was also prepared in which medium containing Triton X-100 (final concentration 0.2%) was added to the cells.
(§9) Then, 5 μL of MTT (5 mg/ml, manufactured by Wako) was added to each well, and the cells were incubated at 37° C. for 2 to 3 hours. Then, the medium was replaced with 100 μL of DMSO to lyse the cells, and the absorbance of these cell lysates at a wavelength of 570 nm was measured with a microplate reader (manufactured by Bio-Rad, Benchmark model). In addition, based on the obtained absorbance, the cell viability was calculated by the following formula.
(§10) Cell viability (%)=(absorbance in wells with DHODH inhibitor-absorbance in background)/(absorbance in control-absorbance in background)×100.

A further data set deals with mouse astrocytes. Put plainly: MTT assay, viability of mouse astrocytes. Type of data set: cell-based. The conditions noted are these: 10 μM BRQ, 3 days. Here is the method:
as §6, §7, §8, §9, §10

Data set [7] concerns mouse iPS cells. Put plainly: Cell proliferation and cell death (BrdU uptake, Ki67, Casp3 immunostaining), iPS cells. Type of data set: cell-based. To be noted: BRQ 2 days. Here is the method: as §1, §2
Data set [8] deals with teratomas formed from mouse ES cells. Put plainly: Anti-teratoma activity in NOD/SCID mice, ES cell-derived tumors. Type of data set: in vivo. How it is done:
as §3, §4, §5

Data set [9] concerns mouse neural stem cells (mNSC). Put plainly: MTT assay, viability of mouse neural stem cells. Type of data set: cell-based. To be noted: 10 μM BRQ, 3 days. How it is done: as §6, §7, §8, §9, §10
In another data set the test system is C2C12: mouse myoblasts. The data set can be described thus: MTT assay, viability of C2C12 cells. To be noted: 10 μM BRQ, 3 days. Type of data set: cell-based. Here is the method: as §6, §7, §8, §9
Cell viability (%)=(absorbance in wells with DHODH inhibitor-absorbance in background)/(absorbance in control-absorbance in background)×100. […]
Background: Tetrazolium dyes change colour on reduction, which living cells bring about.

SMILES strings stand for the structures. Entries after “also recorded” stand apart in the source; their conditions may differ.

For `Cc1c(-c2ccc(-c3ccccc3F)cc2)nc2ccc(F)cc2c1C(=O)O` [BRQ, 6-fluoro-2-(2′-fluoro-1,1′-biphenyl-4-yl)-3-methyl-4-quinoline-sodium carboxylate], in the data set on mouse ES cells [1], the “tumor formation from pretreated cells” value is recorded as “did not proliferate”. Further, the “CASP3 activation (Casp3 immunostaining)” value with mouse ES cells [2] and with mouse iPS cells [7] was “strongly activated” each time. The “cell proliferation (BrdU uptake assay)” value with mouse ES cells [2] and with mouse iPS cells [7] was “reduced the proliferation” each time. In the data set with mouse iPS cells [3], the “expression levels of marker genes (Sox2, Oct4, Nanog)” value is “generally decreased”. For the same compound, the “number of Oct4-positive cells and Nanog-positive cells in tumors” value in [4] (iPS cell-derived tumors) and in data set [8] (ES cell-derived tumors) was “significantly decreased” each time. The tumor proliferation entry in data set [4] (iPS cell-derived tumors, BRQ intraperitoneally) is “suppressed”; in data set [8] (ES cell-derived tumors, BRQ intraperitoneally), “suppressed”. Also, the “cells expressing differentiation markers (ATF, βIII tubulin, SMA) in tumors” value in data set [4] (iPS cell-derived tumors, BRQ- vs DMSO-treated) was “similarly contained in both tumors”; in data set [8] (ES cell-derived tumors, BRQ- vs DMSO-treated), “similarly contained in both tumors”. Moreover, the “Ki67-positive proliferating cells in tumors” value in data set [4] (iPS cell-derived tumors, compared to DMSO-treated tumors) is “significantly reduced”; in data set [8] (ES cell-derived tumors, compared to DMSO-treated tumors), “significantly reduced”. Besides, the sizes of teratomas in data set [4] (iPS cell-derived, BRQ intraperitoneally (DMSO control 1.37 cm^3)) was 0.32 cm^3; in data set [8] (ES cell-derived, BRQ intraperitoneally (DMSO control 0.55 cm^3)), 0.12 cm^3. Besides, the “iPS cells (Nanog) in mixed culture” value in data set [5] (ES cell medium) is reported as “lost”. The “cytotoxicity to neural stem cells (Nestin) in mixed culture” value in [5] (mixed with iPS cells) is “no obvious cytotoxicity”. Also, the “cytotoxic activity (viability, MTT assay)” value in the data set with mouse ES cells [6] (10 μM BRQ) is recorded as “significant cytotoxic activity”; in the data set with mouse ES cells [6] (2-fold dilution series starting from 200 μM) it was “significant cytotoxic activity”; in the data set with C2C12: mouse myoblasts, “no significant cytotoxic activity”. Besides, the “cytotoxic activity / sensitivity (viability, MTT assay)” value (with mouse astrocytes; in [9]) was “hyposensitive; also recorded: no significant cytotoxic activity” throughout.

These data come from patent US20220364065A1, “COMPOSITION FOR REMOVING PLURIPOTENT STEM CELLS AND METHOD OF REMOVING PLURIPOTENT STEM CELLS” (NATIONAL UNIVERSITY CORPORATION HOKKAIDO UNIVERSITY, priority 2018, published 2022).
